According to patent US20250171430A1, “PYRAZOLYL COMPOUNDS AS KV7 CHANNEL ACTIVATORS” (Biohaven Therapeutics Ltd., priority 2022, published 2025):

Molecular target: T1, Kv7.2/7.3 (Homo sapiens, UniProt O43525+O43526)
T1 construct: Kv7.2 tetracycline-induced, Kv7.3 constitutive
Experiment: Kv7.2/7.3 Activation Assay (Thallium Flux Assay)
Type: cell-based
Conditions: hKV7.2/7.3 cell line; test compound at single concentration of 10 μM; fluorescence at 90 sec normalized to positive control (retigabine, 30 μM)
Procedure, shortened: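 Human Kv7.2/7.3 cells with Kv7.2 induced overnight by 10 ng/mL tetracycline were loaded with FluxOR II Green for 1 h at 37 °C. Compounds were tested at 10 μM in 0.1% DMSO/extracellular solution, pH 7.4. Thallium/potassium stimulus was added after a 15 s baseline, and 90 s fluorescence (ex 475/em 530 nm) was normalized to 30 μM retigabine.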

In the case of `Cn1nc(NC(=O)CC2CC(F)(F)C2)c(C2CCC2)c1-c1ccc(Cl)c(F)c1` [Compound 250, N-(5-(4-chloro-3-fluorophenyl)-4-cyclobutyl-1-methyl-1H-pyrazol-3-yl)-2-(3,3-difluorocyclobutyl)acetamide], the “Kv7.2/7.3 Activity” value is reported as “++ (“++” High Activity ≥ 0.7)”.
In the case of `Cn1nc(NC(=O)NCC(C)(C)C)c(C2CCC2)c1-c1ccc(F)cc1` [Compound 251, 1-(4-cyclobutyl-5-(4-fluorophenyl)-1-methyl-1H-pyrazol-3-yl)-3-neopentylurea], the “Kv7.2/7.3 Activity” value is reported as “+ (“+” Moderate Activity 0.15-0.7)”.
`Cn1nc(NC(=O)NC2(C)COC2)c(C2CCC2)c1-c1ccc(F)cc1` [Compound 252, 1-(4-cyclobutyl-5-(4-fluorophenyl)-1-methyl-1H-pyrazol-3-yl)-3-(3-methyloxetan-3-yl)urea] was tested, and the “Kv7.2/7.3 Activity” value was “+ (“+” Moderate Activity 0.15-0.7)”.
With `Cn1nc(NC(=O)[C@@H]2C[C@@H]2F)c(C2CCC2)c1-c1ccc(F)cc1` [Compound 253, (1S,2S)-N-(4-cyclobutyl-5-(4-fluorophenyl)-1-methyl-1H-pyrazol-3-yl)-2-fluorocyclopropane-1-carboxamide] the “Kv7.2/7.3 Activity” value was “− (“−” No Activity < 0.15)”.
For `Cn1nc(NC(=O)C[C@@H]2CC(F)(F)C2(F)F)c(C2CCC2)c1-c1ccc(F)cn1` [Compound 254, (R)-N-(4-cyclobutyl-5-(5-fluoropyridin-2-yl)-1-methyl-1H-pyrazol-3-yl)-2-(2,2,3,3-tetrafluorocyclobutyl)acetamide], the “Kv7.2/7.3 Activity” value was “++ (“++” High Activity ≥ 0.7)”.
`Cn1nc(NC(=O)C2CC(F)(F)C2)c(C2CCC2)c1-c1cc(F)cc(F)c1` [Compound 255, N-(4-cyclobutyl-5-(3,5-difluorophenyl)-1-methyl-1H-pyrazol-3-yl)-3,3-difluorocyclobutane-1-carboxamide] was tested, and the “Kv7.2/7.3 Activity” value was “++ (“++” High Activity ≥ 0.7)”.
For `Cn1nc(NC(=O)C[C@@H]2CC(F)(F)C2(F)F)c(C2CCC2)c1-c1cc(F)cc(F)c1` [Compound 256, (R)-N-(4-cyclobutyl-5-(3,5-difluorophenyl)-1-methyl-1H-pyrazol-3-yl)-2-(2,2,3,3-tetrafluorocyclobutyl)acetamide], the “Kv7.2/7.3 Activity” value was “++ (“++” High Activity ≥ 0.7)”.
For `Cn1nc(NC(=O)C2CSC2)c(C2CCC2)c1-c1cc(F)cc(F)c1` [Compound 257, N-(4-cyclobutyl-5-(3,5-difluorophenyl)-1-methyl-1H-pyrazol-3-yl)thietane-3-carboxamide], the “Kv7.2/7.3 Activity” value was “++ (“++” High Activity ≥ 0.7)”.
With `Cn1nc(NC(=O)CC2CC(F)(F)C2)c(C2CCC2)c1-c1cc(F)cc(F)c1` [Compound 258, N-(4-cyclobutyl-5-(3,5-difluorophenyl)-1-methyl-1H-pyrazol-3-yl)-2-(3,3-difluorocyclobutyl)acetamide] the “Kv7.2/7.3 Activity” value was “++ (“++” High Activity ≥ 0.7)”.
With `Cn1nc(NC(=O)CC2(C(F)F)CC2)c(C2CCC2)c1-c1cc(F)cc(F)c1` [Compound 259, N-(4-cyclobutyl-5-(3,5-difluorophenyl)-1-methyl-1H-pyrazol-3-yl)-2-(1-(difluoromethyl)cyclopropyl)acetamide] the “Kv7.2/7.3 Activity” value was “++ (“++” High Activity ≥ 0.7)”.
For `Cn1nc(NC(=O)OC2CC(F)(F)C2)c(C2CCC2)c1-c1ccc(Cl)c(F)c1` [Compound 260, 3,3-difluorocyclobutyl (5-(4-chloro-3-fluorophenyl)-4-cyclobutyl-1-methyl-1H-pyrazol-3-yl)carbamate], the “Kv7.2/7.3 Activity” value was “++ (“++” High Activity ≥ 0.7)”.
For `Cn1nc(NC(=O)C2CC(F)(F)C2)c(C2CCC2)c1-c1cc(F)c(F)c(F)c1` [Compound 261, N-(4-cyclobutyl-1-methyl-5-(3,4,5-trifluorophenyl)-1H-pyrazol-3-yl)-3,3-difluorocyclobutane-1-carboxamide], the “Kv7.2/7.3 Activity” value was “++ (“++” High Activity ≥ 0.7)”.
In the case of `Cn1nc(NC(=O)C[C@@H]2CC(F)(F)C2(F)F)c(C2CCC2)c1-c1cc(F)c(F)c(F)c1` [Compound 262, (R)-N-(4-cyclobutyl-1-methyl-5-(3,4,5-trifluorophenyl)-1H-pyrazol-3-yl)-2-(2,2,3,3-tetrafluorocyclobutyl)acetamide], the “Kv7.2/7.3 Activity” value is reported as “++ (“++” High Activity ≥ 0.7)”.
With `Cn1nc(NC(=O)C2CSC2)c(C2CCC2)c1-c1cc(F)c(F)c(F)c1` [Compound 263, N-(4-cyclobutyl-1-methyl-5-(3,4,5-trifluorophenyl)-1H-pyrazol-3-yl)thietane-3-carboxamide] the “Kv7.2/7.3 Activity” value was “++ (“++” High Activity ≥ 0.7)”.
For `Cn1nc(NC(=O)CC2CC(F)(F)C2)c(C2CCC2)c1-c1cc(F)c(F)c(F)c1` [Compound 264, N-(4-cyclobutyl-1-methyl-5-(3,4,5-trifluorophenyl)-1H-pyrazol-3-yl)-2-(3,3-difluorocyclobutyl)acetamide], the “Kv7.2/7.3 Activity” value was “++ (“++” High Activity ≥ 0.7)”.
With `Cn1nc(NC(=O)CC2(C(F)F)CC2)c(C2CCC2)c1-c1cc(F)c(F)c(F)c1` [Compound 265, N-(4-cyclobutyl-1-methyl-5-(3,4,5-trifluorophenyl)-1H-pyrazol-3-yl)-2-(1-(difluoromethyl)cyclopropyl)acetamide] the “Kv7.2/7.3 Activity” value was “++ (“++” High Activity ≥ 0.7)”.
`Cn1nc(NC(=O)C[C@H]2CC(F)(F)C2(F)F)c(C2CCC2)c1-c1cc(F)cc(F)c1` [Compound 266, (S)-N-(4-cyclobutyl-5-(3,5-difluorophenyl)-1-methyl-1H-pyrazol-3-yl)-2-(2,2,3,3-tetrafluorocyclobutyl)acetamide] was tested, and the “Kv7.2/7.3 Activity” value was “++ (“++” High Activity ≥ 0.7)”.
In the case of `C[C@@H](C(=O)Nc1nn(C)c(-c2cc(F)cc(F)c2)c1C1CCC1)C1CC(F)(F)C1` [Compound 267, (R)-N-(4-cyclobutyl-5-(3,5-difluorophenyl)-1-methyl-1H-pyrazol-3-yl)-2-(3,3-difluorocyclobutyl)propanamide], the “Kv7.2/7.3 Activity” value is reported as “++ (“++” High Activity ≥ 0.7)”.
`C[C@H](C(=O)Nc1nn(C)c(-c2cc(F)cc(F)c2)c1C1CCC1)C1CC(F)(F)C1` [Compound 268, (S)-N-(4-cyclobutyl-5-(3,5-difluorophenyl)-1-methyl-1H-pyrazol-3-yl)-2-(3,3-difluorocyclobutyl)propanamide] was tested, and the “Kv7.2/7.3 Activity” value was “+ (“+” Moderate Activity 0.15-0.7)”.
In the case of `Cn1nc(NC(=O)OC2CC(F)(F)C2)c(C2CCC2)c1-c1cc(F)cc(F)c1` [Compound 269, 3,3-difluorocyclobutyl (4-cyclobutyl-5-(3,5-difluorophenyl)-1-methyl-1H-pyrazol-3-yl)carbamate], the “Kv7.2/7.3 Activity” value is reported as “++ (“++” High Activity ≥ 0.7)”.
With `Cn1nc(NC(=O)NC2CC(F)(F)C2)c(C2CCC2)c1-c1cc(F)cc(F)c1` [Compound 270, 1-(4-cyclobutyl-5-(3,5-difluorophenyl)-1-methyl-1H-pyrazol-3-yl)-3-(3,3-difluorocyclobutyl)urea] the “Kv7.2/7.3 Activity” value was “++ (“++” High Activity ≥ 0.7)”.
For `Cc1cccc(-c2c(NC(=O)C3CC(F)(F)C3)nn(C)c2C2CC(F)(F)C2)c1` [Compound 271, N-(5-(3,3-difluorocyclobutyl)-1-methyl-4-(m-tolyl)-1H-pyrazol-3-yl)-3,3-difluorocyclobutane-1-carboxamide], the “Kv7.2/7.3 Activity” value was “+ (“+” Moderate Activity 0.15-0.7)”.
In the case of `Cn1nc(NC(=O)C2CC(F)(F)C2)c(C2CCC2)c1-c1ccc(OC(F)F)nc1` [Compound 272, N-(4-cyclobutyl-5-(6-(difluoromethoxy)pyridin-3-yl)-1-methyl-1H-pyrazol-3-yl)-3,3-difluorocyclobutane-1-carboxamide], the “Kv7.2/7.3 Activity” value is reported as “+ (“+” Moderate Activity 0.15-0.7)”.
With `Cn1nc(NC(=O)C[C@@H]2CC(F)(F)C2(F)F)c(C2CCC2)c1C1CCC(F)(F)CC1` [Compound 273, (R)-N-(4-cyclobutyl-5-(4,4-difluorocyclohexyl)-1-methyl-1H-pyrazol-3-yl)-2-(2,2,3,3-tetrafluorocyclobutyl)acetamide] the “Kv7.2/7.3 Activity” value was “++ (“++” High Activity ≥ 0.7)”.
`Cn1nc(NC(=O)OC2CC(F)(F)C2)c(C2CCC2)c1C1CC(F)(F)C1` [Compound 274, 3,3-difluorocyclobutyl (4-cyclobutyl-5-(3,3-difluorocyclobutyl)-1-methyl-1H-pyrazol-3-yl)carbamate] was tested, and the “Kv7.2/7.3 Activity” value was “++ (“++” High Activity ≥ 0.7)”.
`Cn1nc(NC(=O)C2COC2)c(C2CCC2)c1-c1cc(F)c(F)c(F)c1` [Compound 275, N-(4-cyclobutyl-1-methyl-5-(3,4,5-trifluorophenyl)-1H-pyrazol-3-yl)oxetane-3-carboxamide] was tested, and the “Kv7.2/7.3 Activity” value was “− (“−” No Activity < 0.15)”.
With `Cn1nc(NC(=O)C2COC2)c(C2CCC2)c1-c1ccc(Cl)s1` [Compound 276, N-(5-(5-chlorothiophen-2-yl)-4-cyclobutyl-1-methyl-1H-pyrazol-3-yl)oxetane-3-carboxamide] the “Kv7.2/7.3 Activity” value was “+ (“+” Moderate Activity 0.15-0.7)”.
In the case of `Cn1nc(NC(=O)NC2CC(F)(F)C2)c(C2CCC2)c1-c1ccc(C(F)(F)F)cc1` [Compound 277, 1-(4-cyclobutyl-1-methyl-5-(4-(trifluoromethyl)phenyl)-1H-pyrazol-3-yl)-3-(3,3-difluorocyclobutyl)urea], the “Kv7.2/7.3 Activity” value is reported as “+ (“+” Moderate Activity 0.15-0.7)”.
In the case of `Cn1nc(NC(=O)C2COC2)c(C2CCC2)c1-c1ccc(F)c(F)c1` [Compound 278, N-(4-cyclobutyl-5-(3,4-difluorophenyl)-1-methyl-1H-pyrazol-3-yl)oxetane-3-carboxamide], the “Kv7.2/7.3 Activity” value is reported as “− (“−” No Activity < 0.15)”.
In the case of `Cn1nc(NC(=O)OC2CC(F)(F)C2)c(C2CCC2)c1-c1ccc(C(F)(F)F)cc1` [Compound 279, 3,3-difluorocyclobutyl (4-cyclobutyl-1-methyl-5-(4-(trifluoromethyl)phenyl)-1H-pyrazol-3-yl)carbamate], the “Kv7.2/7.3 Activity” value is reported as “+ (“+” Moderate Activity 0.15-0.7)”.
For `Cn1nc(NC(=O)OCC(F)F)c(C2CCC2)c1C1COC1` [Compound 280, 2,2-difluoro-213-ethyl (4-cyclobutyl-1-methyl-5-(oxetan-3-yl)-1H-pyrazol-3-yl)carbamate], the “Kv7.2/7.3 Activity” value was “− (“−” No Activity < 0.15)”.
